In US8648115B2 (priority 2009, dated 2014):
Where “and” joins values, the source holds several entries; their conditions need not be identical. Equal values may be shown once. Read-outs that look alike come from different tables or passages of the source.

Experiments:
Phytophthora infestans [1] = experiment: microbe, parasite or virus in culture; assay type: cell-based; details: for IC50: Phytophthora infestans, read-out: Phytophtora infestans (mycelial growth) IC 50
Phytophthora infestans [2] = experiment: microbe, parasite or virus in culture; assay type: cell-based
Phytophthora infestans [3] = assay type: cell-based; details: lower concentrations (1-100 μM drops); three-week old mycelium; 24 h
Colletotrichum coccodes = Colletotrichum coccodes mycelial growth bioassay (OD590); assay type: cell-based
Protocol: FIG. 6: Inhibitory effect of (E)-4-oxohexadec-2-enoic acid on the mycelial growth of Colletotrichum coccodes. One-day old mycelium in 96-well plates was inoculated with different (E)-4-oxohexadec-2-enoic acid concentrations. The growth of C. coccodes was determined by measuring the OD590. The experiment was repeated twice, with identical results.
C. coccodes (CBS369.75) was grown for five days in 50 ml of liquid soybean medium in the dark at 18° C. on a rotary shaker. In order to isolate spores, all of the culture was centrifuged for 5 min at 2100 g and 4° C. The supernatant, which contained the spores, was recentrifuged (10 min, 6500 g, 4° C.). After the supernatant had been decantered off, the pelleted spores were washed carefully in deionized water, centrifuged as above and finally the spore concentration was adjusted to 1×10^5 spores/ml in soybean medium. To carry out the biotest, 200 μl of this spore solution were pipetted into each well of a 96-well plate (Nunc A/S, Denmark). The plates were incubated in an incubator for 24 h at 17° C. in the dark to allow germination. Then, test concentrations of (E)-4-oxohexadec-2-enoic acid were pipetted in as described above, with final concentrations of from 0.01 μM to 100 μM and 2% (v/v) ethanol. The plates were returned into the incubator and the increase in fungal biomass was determined by daily OD590 measurements.
To determine whether (E)-4-oxohexadec-2-enoic acid also has an inhibitory effect on the ascomycete c. coccodes, the causative organism of, inter alia, black dot disease of potato, a multiwell bioassay was set up. The growth of the fungus in liquid medium was determined on the basis of the measurement of the optical density (OD590). A medium containing soya was used for this purpose. One-day old mycelium was inoculated together with various concentrations of (E)-4-oxohexadec-2-enoic acid, and the growth of C. coccodes was determined every 24 h. […] Increasing concentrations reduced the fungal growth even further.

[4] = tested on: Potato plants (Solanum tuberosum L. cv. Désirée); details: in vivo
Phytophthora infestans [5] = assay type: in vivo; details: 3 days after inoculation
[6] = Phytophthora infestans, read-out: Phytophthora infestans (spore germination) IC 50, spore germination
[7] = read-out: Phytophthora infestans (spore germination) IC 50, spore germination

In the case of `CCCCCCCCCCCCC(=O)/C=C/C(=O)O` [(E)-4-oxohexadec-2-enoic acid], the “Mycelial growth (GFP fluorescence)” value (Phytophthora infestans [1]; 1 mM, one-day old mycelium) is reported as “growth was inhibited”, the Spore germination (Phytophthora infestans [2]; 10 nM, 24 h) is reported as “reduced” and the “Reduction of spore germination compared with the ethanol control” value (Phytophthora infestans [2]; 100 nM, 24 h) is reported as “more than 50%”. For the same molecule, the Spores germinated (Phytophthora infestans [2]; 1 μM, 24 h) was under 10%, the Spore germination (Phytophthora infestans [2]; 3.7 μM, 24 h) was “prevented completely” and the Spore lysis (Phytophthora infestans [2]; 100 μM) was “spore lysis was observed”. The “Length of the germination tubes” value (Phytophthora infestans [2]; increasing concentrations) was “had an effect on the length of the germination tubes”, the “Viability of mature mycelium” value (Phytophthora infestans [3]) was “clear negative effect on mycelia viability” and the “Growth of C. coccodes” value (Colletotrichum coccodes; 0.01 μM) was “significant inhibitory effect”. The “Inhibition of growth of C. coccodes compared with the ethanol control” value (Colletotrichum coccodes; 1 μM) was “more than half” and the “Growth of C. coccodes” value (Colletotrichum coccodes; 100 μM) was “complete inhibition”.
With `CCCCCC(=O)/C=C/C(=O)O` [drawing 5] the IC50 (Phytophthora infestans [2]; [6]) was 0.002 µg/mL and the IC50 (Phytophthora infestans [2]; [7]) was 12 nM.
With `CCCCCCCCCCCCC(=O)/C=C/C(=O)[O-].[K+]` [drawing 9] the IC50 (Phytophthora infestans [2]; [6]) was 0.018 µg/mL and the IC50 (Phytophthora infestans [2]; [7]) was 60 nM.
`O=C(O)/C=C/C(=O)CCCCCCCCCCF` was tested, and the IC50 (Phytophthora infestans [1]) was 80 µM and 20.7 µg/mL and the IC50 (Phytophthora infestans [2]; [6]) was 70 nM and 0.018 µg/mL.
With `CCCCCCCCCCCCC(=O)/C=C/C(=O)[O-].[Na+]` [sodium (E)-4-oxohexadec-2-enoate, Sodium (E)-4-oxohexadec-2-enoate] the “Toxic effects on the leaves” value [4] was “no toxic effects on the leaves”, the “Inhibition of infection with P. infestans compared with untreated control plants” value (Phytophthora infestans [5]; 10 μM spray 2 h before inoculation) was 80% and the “Inhibition of infection with P. infestans compared with untreated control plants” value (Phytophthora infestans [5]; 100 μM spray 2 h before inoculation) was 95%.
`CCCCCC(=O)/C=C/C(=O)O` [drawing 6] showed an IC50 (Phytophthora infestans [2]; [6]) of 14 nM.
With `CCCC(=O)/C=C/C(=O)O` the IC50 (Phytophthora infestans [2]; [6]) was 14 nM and 0.0019 µg/mL.
In the case of `CCCCCCCCCCCCCCCCCCC(=O)/C=C/C(=O)O`, the IC50 (Phytophthora infestans [2]; [6]) is reported as 100 nM and 0.035 µg/mL.
For `CCCCCCCCCCCCC(=O)/C=C/C(=O)O` [drawing 8], the IC50 (Phytophthora infestans [1]) was 450 µM and 121 µg/mL and the IC50 (Phytophthora infestans [2]; [6]) was 70 nM and 0.0018 µg/mL.
